The test system of data set [1] is normal small airway epithelial cell line (SAEC). Put plainly: cell growth (SRB) and apoptosis (Annexin V/PI), normal cells. In kind it is cell-based.
The test system of data set [2] is H1299 cells overexpressing WT or Bcl2 single site mutants. Nature of the data set: cell survival of H1299 cells overexpressing exogenous WT or single site Bcl2 mutants. In kind it is cell-based. The text has this: A panel of Bcl2 mutants were generated within the BH4 domain at the specific residues that were identified by the initial docking simulations, including D10A, N11A, R12A, E13A, M16A, K17A, H20A and D31A Bcl2 mutants. A compound Bcl2 mutant D10A/N11A/R12A/E13A (AAAA) was created. Recombinant proteins of these mutants were generated for BDA-2/Bcl2 binding analysis using a competitive fluorescence polarization. […] Second, WT and all Bcl2 mutants were exogenously overexpressed in H1299 cells that express undetectable levels of endogenous Bcl2.

How the values of data set [3] were obtained:
In order to define the appropriate doses for in vivo experimentation, the maximum tolerated dose (MTD) was determined. Nu/Nu nude mice were treated in groups of 6 per dose level with increasing doses of BDA-366 (10-50 mg/kg/d) intraperitoneally (i.p.) for up to 12 days. […] Standard single-dose MTD treatment in normal C57BL/6 mice were measured. […] 10% of single dose MTD can usually be considered as the maximum therapeutic dose (30˜40 mg/kg) for continuous treatment.

In another data set the test system is H460 cells. Put plainly: IP3R/Bcl2 interaction and Ca2+ release. The data set is classed as cell-based. To be noted: increasing concentrations, 24 h. The method, then: To further determine whether Bax is important for BDA-2 induction of apoptosis, the apoptotic effect of BDA-366 was tested on wild type (WT) and Bax knockout (Bax−/−) MEF cells. […] To test whether BDA-2/BH4 binding affects the IP3R/Bcl2 interaction and Ca2+ release, H460 cells were treated with increasing concentrations of BDA-366 for 24 h.

Read-outs that look alike come from different tables or passages of the source.

On to `CCN(CC)CC(O)CNc1ccc(NCC2CO2)c2c1C(=O)c1ccccc1C2=O` (stereo not shown) [BDA-366, 1-((3-(diethylamino)-2-hydroxypropyl)amino)-4-((oxiran-2-ylmethyl)amino)anthracene-9,10-dione], for which the “sensitivity of normal cells” value in data set [1] was “less sensitive”. Besides, the “sensitivity of cells overexpressing WT or single site Bcl2 mutants” value in data set [2] is reported as “enhanced sensitivity”. Further, the “time within which dose was uniformly lethal” value in data set [3] (40 mg/kg/d i.p.) is reported as ≤ 8 days. The “time within which dose was uniformly lethal” value in data set [3] (50 mg/kg/d i.p.) is listed as “up to 12 days”. In addition, the tolerability entry in data set [3] (10 to 30 mg/kg/d i.p., up to 12 days) was “tolerable with no death recorded”. In the data set with H460 cells, the Bcl2/IP3R binding result is “reduced Bcl2/IP3R binding” and the “Ca2+ release” value is given as “increased Ca2+ release”.

Values taken from patent publication US9980936B2, “BH4 antagonists and methods related thereto” (Emory University, priority 2014, dated 2018).
